In brackets after ≈: the same amount, converted by molar mass. Where two headings read alike, the source gives them in different places.
Tested on: P. salmonis
Test: MIC by broth micro dilution in Austral-SRS broth
Format: cell-based
Settings: Piscirickettsia salmonis
[1] = P. salmonis ATCC VR-1361 (type strain), 18° C., read-out: MIC value
[2] = P. salmonis isolates (austral-005), 18° C., n=10, read-out: MIC values

Row | SMILES | MIC | MIC [1] | MIC [2]
1 | CS(=O)(=O)c1ccc([C@@H](O)[C@@H](CF)NC(=O)C(Cl)Cl)cc1 [florfenicol] | 0.5 µg/mL (≈ 1.4 µM) | 0.25 to 0.5 µg/mL (≈ 0.698 to 1.4 µM) | 0.25 to 0.5 µg/mL (≈ 0.698 to 1.4 µM)
2 | CN(C)[C@@H]1C(O)=C(C(N)=O)C(=O)[C@@]2(O)C(O)=C3C(=O)c4c(O)cccc4[C@@](C)(O)[C@H]3[C@H](O)[C@@H]12 [oxytetracycline] | 0.124 µg/mL (≈ 0.269 µM) | 0.25 to 0.5 µg/mL (≈ 0.543 to 1.09 µM) | 0.125 to 2.5 µg/mL (≈ 0.271 to 5.43 µM)

From patent US20140147467A1, “Novel broth medium and blood free solid media” (priority 2012, published 2014)
